The subject of experiment [1] is M109R-HiFR cells. In words: Fluorescence tracking of doxorubicin in cells. The class given is cell-based, murine.
Procedure: As described in Example 5, folate-targeted liposomes containing doxorubicin were prepared and incubated with M109R-HiFR cells. For comparison, M109R-HiFR cells were also incubated with free doxorubicin or with liposomes containing doxorubicin but with no folate targeting ligand.
In another study, the ability of the M109R-HiFR cells to retain doxorubicin after treatment for 1 hour with either free doxorubicin or with doxorubicin-loaded folate-targeted liposomes, followed by incubation in drug-free medium for 24 hours was examined.
M109 HIFR cells were plated, 24 hours prior to each study, on 24 mm cover slips inserted into 35 mm culture dishes. […]
Examination of the cells was done with inverted Zeiss confocal laser scanning microscope (LSM410) (Carl Zeiss, Jena, Germany). Maximum excitation was done by 543 nm line of the internal He-neon laser; fluorescence emission was observed above 570 nm with long-pass barrier filter LP-570) for rhodamine. For doxorubicin, maximum excitation was done by 488 nm line of internal Argon laser: fluorescence emission was observed above 515 nm with long pass barrier filter LP-515. […]
M109R-HiFr cells were incubated with free doxorubicin or with doxorubicin entrapped in folate-targeted liposomes at a doxorubicin concentration of 4×10^−5 M. The doxorubicin molecule was tracked using fluorescence.
The subject of experiment [2] is drug-resistance (M109R) cells. The experiment can be described thus: Cell-associated doxorubicin after exposure. The class given is cell-based, murine. The settings on record: Drug-Resistant Cells, 0.2×10^-5 M doxorubicin. As to the method: (§1) The doxorubicin was administered to the cells in free form and entrapped in folate-targeted liposomes. The cell-associated drug was measured after 1 hour and 4 hours of exposure to doxorubicin.

The subject of experiment [3] is drug-sensitive (M109) cells. In words: Cell-associated doxorubicin after exposure. As to conditions: 0.5×10^-6 M doxorubicin. The format is cell-based, murine. As to the method: as §1
The test system of experiment [4] is M109R-HiFR cells. The experiment can be described thus: In vivo adoptive tumor growth assay, footpad. Set-up: species or system BALB/c mice. The text has this: To examine the biological activity of drug delivered by the folate-pathway from folate-targeted liposomes in another model, M109R-HiFR cells in vitro were exposed to a test drug. These cells were inoculated into mice footpads. In this way, the growth of cells was tracked along a much longer time span than in in vitro experiments, and the influence of in vivo micro-environmental factors is brought into play. However, unlike therapeutic experiments, this type of in vivo adoptive assay is unaffected by pharmacokinetic and biodistribution factors which complicat the interpretation of results.
Accordingly, tumor cells in vitro were incubated with free doxorubicin or with liposome-entrapped, non-folate-targeted doxorubicin (DOXIL®) or with folate-targeted, liposome-entrapped doxorubicin in accord with the invention. As described in Example 9, the tumor cells were incubated in the presence of the selected formulation for 1 hour and then 1×10^6 cells were injected into the footpad of a mouse, each treatment formulation being injected into 8 mice.
At the end of the study on day 34 after injection of the treated tumor cells, the weight of each tumor-bearing mouse footpad was determined and […] to determine the tumor weight in each mouse footpad.
Female 10-week-old BALB/c mice were maintained in a specific pathogen-free facility. M109R-HiFR cells in in vitro suspension (10^7 cells/ml) were exposed to 10^−5M doxorubicin either as free drug, as liposome-entrapped (Doxil®), or as folate-targeted liposome-entrapped […], washed with PBS, and then resuspended at a concentration of 2×10^7 cells. Healthy, syngeneic BALB/c mice were injected into the right hind footpad with 50 μl (10^6 cells). The footpad thickness was measured with calipers once or twice a week for 5 weeks. After 35 days, mice were sacrificed, the final number of tumors recorded, and the control and tumor-inoculated footpads were sectioned at the ankle level and weighed. Tumor weight was estimated as the difference between the weight of the normal and tumor-bearing footpad. The statistical significance of differences in the final incidence of tumors per group was analyzed by contingency tables and the Fisher's exact test.

The subject of a further experiment is tumor cells. In words: Adoptive tumor growth assay, subcutaneous injection. The class given is in vivo, mice. As to conditions: treated tumor cells injected subcutaneously (FIG. 16). An excerpt:
FIG. 16 is a plot showing the number of palpable tumors after subcutaneous injection of untreated (control, open circles) or in vitro treated tumor cells with free doxorubicin (closed circles), doxorubicin entrapped in non-targeted liposomes (open squares) and doxorubicin entrapped in folate-targeted liposomes (closed triangles).

The subject of a further experiment is M109R cells. In words: Multidrug-resistance of M109R subline. The format is cell-based, murine. The text has this: (i) Cell lines: M109, a murine lung carcinoma line of BALB/c mice (Marks, T. A. et al., Cancer Treat. Rep., 61:1459-1470 ([…])), and a subline of these cells, M109R displaying multidrug-resistance, (approximately 100 fold increased resistance to doxorubicin) were used in most of the studies. Both cell lines express in vitro low amounts of folic acid receptors and are therefore referred to as M109-LoFR and M109R-LoFR. By culturing these cells in folic acid-free medium for several passages, two sublines expressing a high amount of folic acid receptors were obtained. These sublines were adapted to grow under low folic acid conditions with generation doubling times similar to the lines of origin.

The subject of experiment [5] is M109R-HiFR cells. The experiment can be described thus: Verapamil blockade of efflux pump and doxorubicin delivery. The settings on record: for Intracellular Doxorubicin Content: 0.5×10^-5 M doxorubicin, verapamil 10 μmol where named.
A further experiment concerns M109-LoFR cells. The experiment can be described thus: Folic acid binding to cell lines. Details: species or system murine. The settings on record: incubation 30 min at 37° C. The procedure:
(§2) These cell lines and their capacity to bind folic acid were determine as set forth in Example 2B, by incubating the cells for 30 minutes with folic acid at 37° C.
(§3) Radioactivity was determined by liquid scintillation counting.

The next experiment deals with M109R-LoFR cells. The experiment can be described thus: Folic acid binding to cell lines. As to conditions: incubation 30 min at 37° C. Set-up: species or system murine. The procedure:
as §2, §3

For a further experiment, the system named is Human Melanoma line A375. In words: Folic acid binding to cell lines. The settings on record: 30 min at 37° C. As to the method:
as §2, §3

Experiment [6] has as its system Murine Lung Carcinoma High Folate Receptor cells. In words: Folic acid binding to cell lines. The settings on record: Murine Lung Carcinoma High Folate Receptor (printed M109R-HiFR); 30 min at 37° C. As to the method: as §2, §3
The test system of a further experiment is Normal Human Fibroblasts. The experiment can be described thus: Folic acid binding to cell lines. The settings on record: NHF; 30 min at 37° C. The procedure:
as §2, §3

The test system of the next experiment is KB-HiFR cells. The experiment can be described thus: Folic acid binding to cell lines. Set-up: species or system human. As to the method: as §2, §3
In another experiment the test system is KB-LoFR cells. The experiment can be described thus: Folic acid binding to cell lines. Details: species or system human. The procedure:
as §2, §3

Experiment [7] relates to M109R-HiFR cells. The experiment can be described thus: Folic acid binding to cell lines.
Where [8] appears, read: cells exposed in vitro to 10^-5 M doxorubicin, 5 weeks follow-up.

Bounds are passed on as bounds.

As to `COc1cccc2c1C(=O)c1c(O)c3c(c(O)c1C2=O)C[C@@](O)(C(=O)CO)C[C@@H]3O[C@H]1C[C@H](N)[C@H](O)[C@H](C)O1` [Free Doxorubicin, doxorubicin], the “doxorubicin fluorescence retained in cells” value in the experiment on M109R-HiFR cells [1] (1 hour treatment, then 24 hours in drug-free medium (FIGS. 10C-10D)) was “almost completely waned”. Also, in the experiment on M109R-HiFR cells [1] (doxorubicin 4×10^-5 M (FIGS. 9B, 9E)), the “time at which drug is located in the nucleus” value is at most 30 min. For the same molecule, the “Percent doxorubicin administered remaining in cells” value is 5.5% in experiment [2] (exposure 1 hour), 4.2% in experiment [2] (exposure 4 hours), 8.6% in experiment [3] (exposure 1 hour) and 12.4% in [3] (exposure 4 hours). The intracellular doxorubicin in experiment [2] (exposure 1 hour) is given as 159 ng/1.5 × 10^6 cells; in experiment [2] (exposure 4 hours) it was 122 ng/1.5 × 10^6 cells; in experiment [3] (exposure 1 hour), 25 ng/1.5 × 10^6 cells; in experiment [3] (exposure 4 hours), 36.1 ng/1.5 × 10^6 cells. The “Final Tumor Incidence (%)” value in the experiment with M109R-HiFR cells [4] (setting [8]) is given as 42%. Moreover, in the experiment with M109R-HiFR cells [4] (setting [8]), the “Final Tumor Incidence (tumors/mice)” value is on record as 8/19. Besides, the “Median Tumor weight (range)” value with M109R-HiFR cells [4] (footpad tumor weight at end of study) is on record as 239 (32-683) mg. Further, in the experiment with M109R-HiFR cells [4] (tumor cells treated in vitro, 10^6 cells injected into footpad (FIG. 15A)), the footpad thickness entry was “increase in footpad thickness”. Moreover, the “number of palpable tumors” value with tumor cells is recorded as “significant number of tumors”. The “increased resistance of M109R versus M109” value in the experiment on M109R cells is “approximately 100 fold”. The “cell fluorescence by flow cytometry in presence of verapamil” value in the experiment on M109R-HiFR cells [5] (FIGS. 11A-11B) is “clear increase of cell fluorescence”. Besides, the “Intracellular Doxorubicin Content” value in the experiment with M109R-HiFR cells [5] (exposure time 30 minutes) worked out at 24 ng/1.5 × 10^6 cells; with M109R-HiFR cells [5] (exposure time 60 minutes), 42.5 ng/1.5 × 10^6 cells. For the same molecule, the “cell retention of doxorubicin in presence versus absence of verapamil” value with M109R-HiFR cells [5] (verapamil 10 μmol) is listed as around 4.5 fold.
`Nc1nc2ncc(CNc3ccc(C(=O)N[C@@H](CCC(=O)O)C(=O)O)cc3)nc2c(=O)[nH]1` [folic acid]: the “FOLIC ACID BINDING” value is 25 ± 13 FENTOMOLES/10^4 CELLS with M109-LoFR cells (M109-LoFR after culture in folic acid-depleted medium for 24 h); 20 ± 6 FENTOMOLES/10^4 CELLS in the experiment on M109-LoFR cells (M109-LoFR); 27 ± 10 FENTOMOLES/10^4 CELLS in the experiment on M109R-LoFR cells; 168 ± 33 FENTOMOLES/10^4 CELLS in the experiment on Human Melanoma line A375; 678 ± 255 FENTOMOLES/10^4 CELLS in experiment [6]; 45 ± 3 FENTOMOLES/10^4 CELLS in the experiment on Normal Human Fibroblasts. The “FOLIC ACID BINDING” value in the experiment on KB-HiFR cells (KB-HiFR, 30 min at 37° C.) amounted to 9730 ± 79 FENTOMOLES/10^4 CELLS; in the experiment on KB-LoFR cells (KB-LoFR after culture in folic acid-depleted medium for 24 h, 30 min at 37° C.) it was 6725 ± 323 FENTOMOLES/10^4 CELLS; with M109R-HiFR cells [7] (Multidrug-resistant High Folate Receptor M109R-HiFR, 30 min at 37° C.) it was 2179 ± 430 FENTOMOLES/10^4 CELLS. The “difference in folic acid binding capacity” value in the experiment with KB-HiFR cells (KB-HiFR (highest) compared with M109-LoFR (lowest)) was “up to 485 fold”. In the experiment on KB-LoFR cells (KB-LoFR after 24 hours in folic acid-depleted medium), the “increase in folic acid binding” value came to 15 fold. In the experiment with M109R-HiFR cells [7] (acid wash pH 3, binding at ~1° C. for 30 min), the “folic acid remaining bound following acid wash” value stood at 2±1%. Also, in the experiment with M109R-HiFR cells [7] (monolayers pretreated with PI-PLC), the “loss of folic acid receptors shown by binding assay with folic acid” value was found to be 99%. Besides, the “cell-bound radiolabeled folic acid recovered after trypsinization” value in the experiment with M109R-HiFR cells [7] (trypsin treatment) is 91±11%.

Source of the values: US20060062842A1, “Method of administering a compound to multi-drug resistant cells” (Alza Corporation, priority 1998, published 2006).
